Test results as given in patent US5266328A, “Laminin a chain polypeptides from the carboxy terminal globular domain” (Regents of the University of Minnesota, priority 1990, dated 1993).

Assays:
Assay type in all cases: cell-based
[1] = system: human renal (SN12C) cells; experiment: Cell spreading assay; conditions: wells coated at 100 μg/ml, 2 1/2 hour incubation
Method: (§1) Spreading of the adherent cells was evaluated by performing adhesion assays similar to those described above. Twenty-four well tissue culture plates (Becton Dickinson and Co., Lincoln Park, N.J.) were coated with 300 μl of laminin, synthetic peptides, or BSA at 100 μg/ml, then blocked with 2 mg/ml BSA in PBS. Three hundred microliters of a cell suspension at 5×10^4 cells/ml was added to each well, and after a 21/2 hour incubation, nonadherent cells were aspirated out of the wells. Adherent cells were fixed with 2% glutaraldehyde in PBS at 23° C. for one hour. The glutaraldehyde was then removed and the cells were stained by two different techniques. For photographic purposes, the cells were stained with Diff-Quik Solution I (American Scientific Products, McGaw Park, Ill.) for 10 minutes at 23° C. Solution I was removed, then Diff-Quik Solution II was added and the cells were stained for another 10 minutes at 23° C. Wells were washed with PBS, then representative cells were photographed with a Nikon DIAPHOT inverted phase microscope using Panatomic X Film ASA32 (Eastman Kodak, Rochester, N.Y.). Adherent cells to be quantitated for spreading were stained overnight at 23° C. with 500 μl of a solution containing 0.12% (w/v) Coomassie Brilliant Blue R (Sigma Chemical Co.), 5% (v/v) acetic acid, and 50% (v/v) ethanol. Wells were washed three times with 500 μl of PBS and cell spreading was then quantitated by measuring the average surface area occupied by a cell using an Opti-Max Image Analyzer. Thirty cells were measured per well; each experiment was done in quadruplicate and repeated three times. In all cases, the cells spread on the peptides to occupy an area about 60% of that seen on laminin-coated surfaces.

[2] = system: HT-1080 human fibrosarcoma cells; experiment: Cell spreading assay; conditions: wells coated at 100 μg/ml, 2 1/2 hour incubation
Method: as §1

[3] = system: murine fibrosarcoma (MM) cells; experiment: Cell spreading assay; conditions: wells coated at 100 μg/ml, 2 1/2 hour incubation
Method: as §1

[4] = system: human renal (SN12 PM6) cells; experiment: Cell spreading assay; conditions: wells coated at 100 μg/ml, 2 1/2 hour incubation
Method: as §1

[5] = system: murine UV-2237-MM fibrosarcoma cell line; experiment: Direct cell adhesion to peptide-coated surfaces; conditions: surface coated with 1 μg
Text: (§2) The murine melanoma K-1735-C10 (low metastatic) and K-1735-M4 (high metastatic) cell lines, murine UV-2237-MM fibrosarcoma cell line, human renal carcinoma SN12 C (low metastatic) and SN12 PM-6 (high metastatic) cell lines, and human colon carcinoma KM12 C (low metastatic) and KM12 SM (high metastatic) cell lines were originally provided by Dr. I. J. Fidler (M.D., Anderson Hospital, University of Texas Health Sciences Center, Houston, Tex.). The human fibrosarcoma HT-1080 cell line was obtained from the ATCC. The MM fibrosarcoma cell line was maintained in DME (GIBCO Laboratories, Grand Island, N.Y.) containing 10% FBS, the murine melanomas were maintained in DMEM containing 10% calf serum, the human fibrosarcoma cells were maintained in EMEM containing 10% heat inactivated FBS, and the human renal and colon carcinoma cells were grown in EME containing 10% FBS, vitamins, and 1 mM sodium pyruvate. Cells were passaged for 4 to 5 weeks and then replaced from frozen stocks of early passage cells to minimize phenotypic drift. Cells were maintained at 37° C. in a humidified incubator containing 5% CO2.
(§3) The direct adhesion of cells to protein or peptide coated surfaces was performed as described in Skubitz et al., Exp. Cell Res., 173, 349-360 (1987) and Charonis et al., supra (1988). Briefly, radiolabeled cells were added to 96-well microtiter plates coated with various concentrations of synthetic peptides, laminin, or BSA (0.02 μg/well-50 μg/well from 50 μl solutions) for various lengths of time. After the incubation period, loosely or nonadherent cells were removed by washing the wells three times. Adherent cells were solubilized and quantitated in a scintillation counter. More specifically, cultures of cells which were 60-80% confluent were metabolically labeled for 24 hours with the addition of 3 μCi/ml of ^3 H-td (tritiated thymidine). On the day of the assay, the cells were harvested by trypsinization, the trypsin was inhibited by the addition of serum, and the cells were washed free of this mixture and resuspended in DMEM buffered with HEPES at pH 7.2. The adhesion medium also contained 2 mg/ml BSA. The cells were adjusted to a concentration of 3-4×10^4 /ml, and 100 μl of this cell suspension was added to the wells. The assay mixture was then incubated at 37° C. for 120 minutes. At the end of the incubation, the wells were washed with warm DMEM/Hepes containing 2 mg/ml BSA, and the adherent population was solubilized with 0.5N NaOH contained 1% SDS. The solubilized cells were then quantitated using a liquid scintillation counter.
(§4) Instead of attempting to characterize the cell binding activity of all 14 of the synthetic peptides, a number of peptides from each of the three heparin binding categories of peptides were evaluated. Microtiter wells were adsorbed with the peptides, laminin, or BSA and a variety of tumor cell lines were tested for the ability to adhere to the ligands. The eight different cell lines selected for this study were of murine or human origin and, in most cases, of either high or low metastatic capacity. […] Many of the peptides that were very good at binding heparin and cells were also capable of inhibiting the adhesion of various cells to surfaces coated with laminin (see below).

[6] = system: human colon carcinoma KM12 C (low metastatic) cell line; experiment: Direct cell adhesion to peptide-coated surfaces; conditions: surface coated with 1 μg
Text: as §2, §3, §4

[7] = system: human renal carcinoma SN12 C (low metastatic) cell line; experiment: Direct cell adhesion to peptide-coated surfaces; conditions: surface coated with 1 μg; human renal (SN12C)
Text: as §2, §3, §4

[8] = system: human renal carcinoma SN12 PM-6 (high metastatic) cell line; experiment: Direct cell adhesion to peptide-coated surfaces; conditions: surface coated with 1 μg; human renal (SN12 PM6)
Text: as §2, §3, §4

[9] = system: murine melanoma K-1735-C10 (low metastatic) cell line; experiment: Direct cell adhesion to peptide-coated surfaces; conditions: surface coated with 1 μg
Text: as §2, §3, §4

[10] = system: murine melanoma K-1735-M4 (high metastatic) cell line; experiment: Direct cell adhesion to peptide-coated surfaces; conditions: surface coated with 1 μg
Text: as §2, §3, §4

[11] = system: human fibrosarcoma HT-1080 cell line; experiment: Direct cell adhesion to peptide-coated surfaces; conditions: surface coated with 1 μg; human fibrosarcoma (HT1080)
Text: The murine melanoma K-1735-C10 (low metastatic) and K-1735-M4 (high metastatic) cell lines, murine UV-2237-MM fibrosarcoma cell line, human renal carcinoma SN12 C (low metastatic) and SN12 PM-6 (high metastatic) cell lines, and human colon carcinoma KM12 C (low metastatic) and KM12 SM (high metastatic) cell lines were originally provided by Dr. I. J. Fidler (M.D., Anderson Hospital, University of Texas Health Sciences Center, Houston, Tex.). The human fibrosarcoma HT-1080 cell line was obtained from the ATCC. […]
The direct adhesion of cells to protein or peptide coated surfaces was performed as described in Skubitz et al., Exp. Cell Res., 173, 349-360 (1987) and Charonis et al., supra (1988). […] Adherent cells were solubilized and quantitated in a scintillation counter. […] The solubilized cells were then quantitated using a liquid scintillation counter.
Instead of attempting to characterize the cell binding activity of all 14 of the synthetic peptides, a number of peptides from each of the three heparin binding categories of peptides were evaluated. […]
Radiolabeled HT-1080 human fibrosarcoma cells were incubated in the wells for 30 minutes and the adhesion of cells was quantitated.

Laminin: extracellular matrix glycoprotein isolated from the EHS murine tumor; positive control
Surface Area Occupied by a Cell [1]: 520 ± 14 μm^2 | Surface Area Occuppied by a Cell ([2]; HT-1080, Table VII): 610 +/- 62 um2 | Surface Area Occupied by a Cell ([2]; human fibrosarcoma (HT1080), Table VI): 610 ± 62 μm^2 | Surface Area Occupied by a Cell [3]: 443 ± 32 μm^2 | Surface Area Occupied by a Cell [4]: 550 ± 29 μm^2 | Percentage of Cells Adhered to Surface [5]: 53% | Percentage of Cells Adhered to Surface [6]: 11% | Percentage of Cells Adhered to Surface [7]: 28% | Percentage of Cells Adhered to Surface [8]: 36% | Percentage of Cells Adhered to Surface [9]: 58% | Percentage of Cells Adhered to Surface [10]: 13% | Percentage of Cells Adhered to Surface [11]: 41%
